Our source for the CC50, EC50 and IC50 values is US8697739B2, “Bicyclic acetyl-CoA carboxylase inhibitors and uses thereof” (Novartis AG, priority 2010, dated 2014).

The nature of data set [1]: in vitro. It counts as cell-based. The conditions noted are these: human. The protocol: (§1) The effect of compounds on HCV infection was determined in vitro using cell cultured (HCVcc) genotype 2a (JFH-1 strain) virus. A renilla luciferase reporter gene was inserted in the viral genome, the expression of which was under the control of HCV 5′UTR (JFH-1^rLuc). Thus, the inhibition of HCV infection or replication can be indirectly measured by the reduction of luciferase activity in the cells. A specifically adapted hepatoma cell line, Huh 7.5, which allowed higher infectivity of HCV in vitro, was cultured in Dulbecco's modified Eagle's medium (DMEM) supplemented with 2 mM L-glutamine, 0.1 mM non-essential amino acids and 10% heat-inactivated fetal bovine serum. The cells were infected with JFH-1^rLuc virus at an MOI=0.01 and were treated at the same time with serially diluted compounds. After 72 hours, luciferase activities in compound-treated cells were measured using the Renilla Luciferase Assay System (Promega) and were compared to those in untreated control cells. Concentration-dependent inhibition curves were generated, from which EC50 values, the concentrations of compounds at which luciferase activities were reduced by 50% relative to untreated control, were calculated. In parallel, cytotoxicity of compounds was determine by measuring the viability of compound-treated cells using CellTiter 96® AQueous One Solution Cell Proliferation Assay (Promega). CC50 represented the concentration of the compound at which cell viability was reduced by 50% compared to untreated control.

Data set [2] deals with HCVcc genotype 2a (JFH-1 strain) virus. Description: HCV assay: JFH-1 rLuc infection of Huh 7.5 cells, renilla luciferase readout. It counts as cell-based. Conditions: Hepatitis C virus, Huh7.5; JFH-1 rLuc virus, MOI=0.01, Huh 7.5 cells, 72 hours, luciferase activity reduced by 50%. The protocol:
as §1

Data set [3] addresses T1, human acetyl-CoA carboxylase 2 (ACC2) (Homo sapiens, UniProt O00763).
T1 construct: The cDNA encoding amino acids 144 to 2458 of human acetyl-CoA carboxylase 2; made in house; host or cells: Sf9 insect cells (baculovirus, pFastBac1)
Put plainly: Acetyl-CoA carboxylase enzyme assay (malonyl-CoA formation by LC/MS/MS). The conditions noted are these: recombinant human ACC2 (aa 144-2458); read-out: IC50 ACC2. It counts as biochemical. An outline of the steps: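 Malonyl-CoA formation was read by LC/MS/MS MRM against a [13C3]-malonyl-CoA internal standard, after acetic acid quench. The enzyme was baculovirus/Sf9-expressed human ACC2 residues 144–2458, given 15 minutes room-temperature compound preincubation in HEPES pH 7.5 buffer with MgCl2, citrate and DTT. Substrate solution held 50 μM acetyl-CoA, 120 μM ATP and 2 mM KHCO3.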

T1 sequence (O00763 144-2458): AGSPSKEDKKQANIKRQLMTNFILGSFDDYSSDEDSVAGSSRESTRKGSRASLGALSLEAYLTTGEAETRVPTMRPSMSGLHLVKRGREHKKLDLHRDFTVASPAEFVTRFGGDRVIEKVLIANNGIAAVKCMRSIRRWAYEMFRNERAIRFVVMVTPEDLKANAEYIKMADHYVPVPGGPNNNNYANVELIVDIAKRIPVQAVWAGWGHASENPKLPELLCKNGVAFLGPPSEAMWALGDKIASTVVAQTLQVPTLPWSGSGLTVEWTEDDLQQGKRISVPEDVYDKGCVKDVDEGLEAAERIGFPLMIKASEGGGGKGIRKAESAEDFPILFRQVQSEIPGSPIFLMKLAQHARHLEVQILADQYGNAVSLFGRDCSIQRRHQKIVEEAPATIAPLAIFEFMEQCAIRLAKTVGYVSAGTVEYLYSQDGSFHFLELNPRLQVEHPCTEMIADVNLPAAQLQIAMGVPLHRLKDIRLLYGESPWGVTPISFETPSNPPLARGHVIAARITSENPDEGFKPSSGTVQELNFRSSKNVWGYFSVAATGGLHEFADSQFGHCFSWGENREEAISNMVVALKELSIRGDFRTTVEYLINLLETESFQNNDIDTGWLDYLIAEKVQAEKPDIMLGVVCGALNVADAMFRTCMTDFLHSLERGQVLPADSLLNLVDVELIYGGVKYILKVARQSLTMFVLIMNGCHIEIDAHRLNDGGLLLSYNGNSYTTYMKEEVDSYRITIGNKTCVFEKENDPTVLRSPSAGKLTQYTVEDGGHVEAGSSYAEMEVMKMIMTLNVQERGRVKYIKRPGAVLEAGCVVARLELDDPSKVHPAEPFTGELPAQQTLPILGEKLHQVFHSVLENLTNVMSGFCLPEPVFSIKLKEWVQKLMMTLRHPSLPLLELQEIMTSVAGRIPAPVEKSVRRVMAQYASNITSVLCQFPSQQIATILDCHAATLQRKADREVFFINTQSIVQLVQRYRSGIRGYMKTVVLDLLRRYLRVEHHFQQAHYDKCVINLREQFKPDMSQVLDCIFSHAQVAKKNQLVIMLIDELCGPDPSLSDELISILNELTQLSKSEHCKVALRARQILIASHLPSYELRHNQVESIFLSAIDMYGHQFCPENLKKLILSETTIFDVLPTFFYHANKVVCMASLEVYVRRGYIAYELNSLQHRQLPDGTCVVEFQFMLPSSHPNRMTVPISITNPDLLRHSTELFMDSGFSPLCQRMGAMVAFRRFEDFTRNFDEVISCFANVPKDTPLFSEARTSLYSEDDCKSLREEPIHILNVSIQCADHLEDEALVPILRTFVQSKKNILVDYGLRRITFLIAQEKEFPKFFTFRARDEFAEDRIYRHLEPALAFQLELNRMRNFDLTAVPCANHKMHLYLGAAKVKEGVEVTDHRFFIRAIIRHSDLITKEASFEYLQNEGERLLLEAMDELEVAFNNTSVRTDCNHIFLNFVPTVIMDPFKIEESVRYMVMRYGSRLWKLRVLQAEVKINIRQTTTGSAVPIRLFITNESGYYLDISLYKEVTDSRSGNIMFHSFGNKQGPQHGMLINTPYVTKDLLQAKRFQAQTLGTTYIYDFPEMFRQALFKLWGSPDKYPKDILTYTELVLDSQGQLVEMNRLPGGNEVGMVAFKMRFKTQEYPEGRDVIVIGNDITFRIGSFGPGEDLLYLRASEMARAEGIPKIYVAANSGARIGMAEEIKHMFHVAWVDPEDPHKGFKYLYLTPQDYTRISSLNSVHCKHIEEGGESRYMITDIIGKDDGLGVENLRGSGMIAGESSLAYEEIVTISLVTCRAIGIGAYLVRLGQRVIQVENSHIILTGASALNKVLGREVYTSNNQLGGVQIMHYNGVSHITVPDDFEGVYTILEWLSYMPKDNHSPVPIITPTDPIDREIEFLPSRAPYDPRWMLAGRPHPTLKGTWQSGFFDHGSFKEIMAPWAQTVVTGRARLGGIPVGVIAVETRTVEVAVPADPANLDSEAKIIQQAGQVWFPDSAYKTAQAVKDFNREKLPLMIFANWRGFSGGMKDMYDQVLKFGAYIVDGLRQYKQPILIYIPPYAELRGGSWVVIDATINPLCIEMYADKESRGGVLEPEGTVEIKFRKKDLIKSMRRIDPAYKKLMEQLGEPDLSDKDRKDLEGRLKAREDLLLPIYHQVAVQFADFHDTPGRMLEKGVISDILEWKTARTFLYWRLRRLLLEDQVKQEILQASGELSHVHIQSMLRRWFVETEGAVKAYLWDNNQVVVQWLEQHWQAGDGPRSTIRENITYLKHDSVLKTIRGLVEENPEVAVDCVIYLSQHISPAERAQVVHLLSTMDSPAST

`COC(=O)CCc1ccc(-c2cc3ccc(S(=O)(=O)N[C@H]4CC[C@H](C(=O)N5CCOC[C@@H]5C5CC5)CC4)cc3n2C)cc1` [Example 473, methyl 3-(4-(6-(N-((1S,4r)-4-((S)-3-cyclopropylmorpholine-4-carbonyl)cyclohexyl)sulfamoyl)-1-methyl-1H-indol-2-yl)phenyl)propanoate]: the CC50 at 72 h in data set [1] is > 33000 nM. The compound also showed an EC50 in data set [2] of 200 nM. Further, the IC50 in data set [3] was < 10 nM.
